Format in all cases: cell-based
Assay [1] has as its target T1, human TLR2 (Homo sapiens, UniProt O60603).
T1 construct: host or cells: HEK-Blue hTLR2 (HEK-293)
Put plainly: HEK-Blue hTLR2 antagonism assay (SEAP reporter) with agonist Pam3CSK4 (TLR1/2 agonist). Particulars: Table B; HEK-Blue hTLR2 cells, ~3×EC50 Pam3CSK4, 18 h, SEAP OD 655 nm, 8-point dilutions.

A further assay deals with T2, human TLR9 (Homo sapiens, UniProt Q9NR96).
T2 construct: host or cells: HEK-Blue hTLR9 (HEK-293)
T2 sequence (Q9NR96 26-1032): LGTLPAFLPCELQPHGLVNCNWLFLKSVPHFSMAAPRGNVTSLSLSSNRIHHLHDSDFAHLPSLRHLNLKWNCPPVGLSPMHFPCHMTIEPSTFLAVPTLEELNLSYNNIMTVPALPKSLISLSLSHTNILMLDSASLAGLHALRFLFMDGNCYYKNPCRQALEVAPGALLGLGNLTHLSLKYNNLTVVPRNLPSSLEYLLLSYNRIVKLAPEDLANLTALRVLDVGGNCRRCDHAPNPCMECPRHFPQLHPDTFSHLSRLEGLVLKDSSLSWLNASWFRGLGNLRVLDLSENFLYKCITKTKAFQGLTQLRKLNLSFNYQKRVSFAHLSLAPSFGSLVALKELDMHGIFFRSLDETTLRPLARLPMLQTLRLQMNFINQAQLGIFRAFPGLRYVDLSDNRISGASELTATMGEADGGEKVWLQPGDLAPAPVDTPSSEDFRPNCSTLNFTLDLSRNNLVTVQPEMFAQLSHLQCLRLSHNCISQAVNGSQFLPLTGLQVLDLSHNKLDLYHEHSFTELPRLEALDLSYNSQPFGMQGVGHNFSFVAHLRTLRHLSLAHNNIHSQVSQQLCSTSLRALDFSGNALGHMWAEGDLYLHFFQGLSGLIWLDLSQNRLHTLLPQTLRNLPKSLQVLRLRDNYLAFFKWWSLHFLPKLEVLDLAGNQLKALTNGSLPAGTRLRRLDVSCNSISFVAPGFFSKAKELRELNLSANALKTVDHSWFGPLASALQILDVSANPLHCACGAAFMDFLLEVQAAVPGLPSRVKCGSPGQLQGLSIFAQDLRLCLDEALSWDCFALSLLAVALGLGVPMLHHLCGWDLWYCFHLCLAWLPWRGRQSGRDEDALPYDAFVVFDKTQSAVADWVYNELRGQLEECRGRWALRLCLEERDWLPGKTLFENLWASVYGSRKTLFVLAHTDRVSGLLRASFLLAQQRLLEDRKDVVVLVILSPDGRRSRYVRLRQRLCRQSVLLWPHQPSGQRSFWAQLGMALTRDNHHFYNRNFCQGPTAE
Put plainly: HEK-Blue hTLR9 assay (SEAP reporter) with agonist ODN 2006. Conditions: Table B; HEK-Blue hTLR9 cells, ~3×EC50 ODN 2006, 18 h; exact values 8-point dilutions, approximate (~ or <) 4-point dilutions; read-out: ~IC50 (μM) with ODN2006. As for the experimental part:
Synthetic ODNs (ODN 2006 (ODN7909), class B CpG oligonucleotide, TLR9 agonist) was obtained from InvivoGen and was dissolved in endotoxin-free water to a concentration 500 μM, vortexed until complete solubilization, and stored in aliquots at −20° C. Prior to addition to cells, an aliquot of the dissolved ligand was vortexed shortly and then was diluted in medium to 50 μM. The EC50 of the agonist for each assay run was determined by using 3-fold dilutions from the starting concentration 10 μM.
Test compounds were solubilized fresh to 10-20 mM stocks in DMSO and sonicated for 5-10 minutes in a water bath sonicator. Serial dilutions were prepared in DMSO, and then diluted in medium. The final concentration of DMSO used in the assay was 1%.
HEK-Blue hTLR9 reporter cells (InvivoGen) are HEK-293 cells stably expressing both the human TLR9 gene and a secreted embryonic alkaline phosphatase (SEAP) reporter construct downstream of NFκB promotor sites. HEK-Blue hTLR9 cells were cultured according to manufacturer's protocol using Dulbecco's Modified Eagle Medium (DMEM; Gibco) containing 1× GlutaMax (Gibco), 10% heat-inactivated Fetal Bovine Serum (Gibco), Pen-Strep (50 U/mL penicillin, 50 μg/mL streptomycin, Gibco), 100 μg/mL Normocin (InvivoGen), and the selective antibiotics, 10 μg/mL Blasticidin (InvivoGen), and 100 μg/mL Zeocin (InvivoGen). Quanti-Blue reagent (InvivoGen) for detection and quantification of secreted alkaline phosphatase was dissolved in 100 mL of endotoxin-free water, warmed to 37° C. for 30 minutes and then filtered using a 0.2 μm membrane.
On day 1, 50 μL of each test compound dilution in duplicates or a vehicle control was added to each well of a 96-well plate followed by addition of 150 μL of HEK-Blue hTLR9 cell suspension (1×10^5 cells/well) and incubated at 37° C./5% CO2 for 2 h. Next, 50 μL of an approximate 3×EC50 concentration of TLR9 agonist, ODN 2006, was added to the wells containing test compounds or the vehicle control. The plates were then incubated at 37° C./5% CO2 for 18 h. For each assay run, vehicle-treated HEK-Blue hTLR9 cells were treated with serial dilutions of agonist to determine EC50 values for the respective run.
On day 2, secreted alkaline phosphatase (SEAP) activity was detected in cell culture supernatants. In brief, 30 μL was collected from each well and transferred to a 96-well plate. Next, 200 μL of Quanti-Blue detection reagent was added to each well. Plates were incubated at 37° C. for 60 min. and SEAP activity was assessed by spectrophotometer OD reading at 655 nm. Table A and Table B show the activities of the compounds tested in HEK-Blue hTLR9 cells against ODN 2006. The activities of the compounds against ODN 2006 are presented as IC50 values which were defined as concentrations of the compounds where percent inhibition of the signal induced by agonist is equal to 50. Exact IC50 values were calculated based on 8-point dilutions for each compound. Approximate IC50 values (˜ or <) were calculated based on 4-point dilutions for each compound.

The target in assay [2] is T1, human TLR2. The assay can be described thus: HEK-Blue hTLR2 antagonism assay (SEAP reporter) with agonist Pam2CSK4 (TLR2/6 agonist). Conditions: Table B; HEK-Blue hTLR2 cells, ~3×EC50 Pam2CSK4, 18 h, SEAP OD 655 nm, 8-point dilutions.

SMILES strings stand for the structures.

T1 sequence (O60603 21-784): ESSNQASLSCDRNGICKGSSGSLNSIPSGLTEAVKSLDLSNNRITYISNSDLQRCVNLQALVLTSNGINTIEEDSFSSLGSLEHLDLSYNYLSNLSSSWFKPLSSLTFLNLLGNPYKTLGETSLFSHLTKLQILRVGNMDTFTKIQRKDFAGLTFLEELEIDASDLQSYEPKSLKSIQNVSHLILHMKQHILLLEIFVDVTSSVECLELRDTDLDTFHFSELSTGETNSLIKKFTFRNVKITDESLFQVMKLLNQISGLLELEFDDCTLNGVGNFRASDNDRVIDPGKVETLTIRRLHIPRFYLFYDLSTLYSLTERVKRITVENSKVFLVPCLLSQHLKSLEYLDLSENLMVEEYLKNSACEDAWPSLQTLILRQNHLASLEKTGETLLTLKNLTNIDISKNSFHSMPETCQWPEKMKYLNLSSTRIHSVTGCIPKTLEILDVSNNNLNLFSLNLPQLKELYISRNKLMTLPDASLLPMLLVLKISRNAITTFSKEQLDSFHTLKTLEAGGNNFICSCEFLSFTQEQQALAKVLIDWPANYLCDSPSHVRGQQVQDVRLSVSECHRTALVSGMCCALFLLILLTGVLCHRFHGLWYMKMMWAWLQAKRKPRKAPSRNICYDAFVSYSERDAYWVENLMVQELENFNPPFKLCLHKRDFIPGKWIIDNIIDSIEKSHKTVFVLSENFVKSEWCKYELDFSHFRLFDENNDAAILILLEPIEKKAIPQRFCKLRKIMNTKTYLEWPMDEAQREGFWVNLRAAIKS

As for `O=Cc1cc(NC(=O)Nc2ccc(N3CCCC3)cc2)cc(F)c1O` [Compound B65, 1-(3-fluoro-5-formyl-4-hydroxyphenyl)-3-(4-(pyrrolidin-1-yl)phenyl)urea], the IC50 (in general, the midpoint of a concentration-inhibition curve) on human TLR2 [1] was 3.7 µM; on human TLR9, below 1.2 µM; at human TLR2 [2], 8.7 µM.

Turning to `O=Cc1cc(C(=O)Nc2ccc(N3CCC(F)(F)C3)cc2)cc(F)c1O` [Compound B67, N-(4-(3,3-difluoropyrrolidin-1-yl)phenyl)-3-fluoro-5-formyl-4-hydroxybenzamide], the values for the IC50 on human TLR2 [1], at human TLR9 and at human TLR2 [2] were 1.2 µM, below 1.2 µM and 3.3 µM, respectively.

For `O=Cc1cc(C(=O)Nc2ccc(N3CCC(F)(F)CC3)cc2)cc(F)c1O` [Compound B68, N-(4-(4,4-difluoropiperidin-1-yl)phenyl)-3-fluoro-5-formyl-4-hydroxybenzamide], the IC50 was 1 µM at human TLR2 [1], below 1.2 µM at human TLR9 and 3.5 µM on human TLR2 [2].

Turning to `O=Cc1cc(C(=O)Nc2cccc(N3CCCC3)c2)cc(F)c1O` [Compound B71, 3-fluoro-5-formyl-4-hydroxy-N-(3-(pyrrolidin-1-yl)phenyl)benzamide], the half-maximal inhibitory concentration (IC50) is 1.7 µM at human TLR2 [1], around 2.5 µM at human TLR9 and 2.6 µM at human TLR2 [2].

As to `CC1(C)CCN(c2ccc(NC(=O)c3cc(F)c(O)c(C=O)c3)cc2)C1` [Compound B73, N-(4-(3,3-dimethylpyrrolidin-1-yl)phenyl)-3-fluoro-5-formyl-4-hydroxybenzamide], the IC50 at human TLR2 [1] was 0.3 µM; on human TLR9, 0.3 µM; on human TLR2 [2] it was 0.6 µM.

As for `O=Cc1cc(C(=O)Nc2ccc(N3CC4CC4C3)cc2)cc(F)c1O` (stereo not drawn) [Compound B74, N-(4-(3-azabicyclo[3.1.0]hexan-3-yl)phenyl)-3-fluoro-5-formyl-4-hydroxybenzamide], the figures for the IC50 at human TLR2 [1], on human TLR9 and at human TLR2 [2] were 0.8 µM, below 1.2 µM and 1.6 µM, respectively.

Consider `O=Cc1cc(C(=O)Nc2ccc(N3C[C@H]4COC[C@H]4C3)cc2)cc(F)c1O` [Compound B75, 3-fluoro-5-formyl-4-hydroxy-N-(4-((3aR,6aS)-tetrahydro-1H-furo[3,4-c]pyrrol-5(3H)-yl)phenyl)benzamide], for which the figures for the IC50 on human TLR2 [1], on human TLR9 and on human TLR2 [2] were 6 µM, around 4.7 µM and 13 µM, respectively.

Consider `O=Cc1cc(C(=O)Nc2ccc(N3C[C@H]4CCC[C@H]4C3)cc2)cc(F)c1O` [Compound B76, 3-fluoro-5-formyl-N-(4-((3aR,6aS)-hexahydrocyclopenta[c]pyrrol-2(1H)-yl)phenyl)-4-hydroxybenzamide], for which the values for the IC50 at human TLR2 [1], on human TLR9 and on human TLR2 [2] were 0.6 µM, below 1.2 µM and 1.2 µM, respectively.

Turning to `O=Cc1cc(C(=O)Nc2ccc(N3CC4(CCC4)C3)cc2)cc(F)c1O` [Compound B77, N-(4-(2-azaspiro[3.3]heptan-2-yl)phenyl)-3-fluoro-5-formyl-4-hydroxybenzamide], the IC50 on human TLR2 [1] is 0.3 µM; on human TLR9 it was below 1.2 µM; on human TLR2 [2], 0.6 µM.

As to `CC1(C)CN(c2ccc(NC(=O)c3cc(F)c(O)c(C=O)c3)cn2)c2ccccc21` [Compound B87, N-(6-(3,3-dimethylindolin-1-yl)pyridin-3-yl)-3-fluoro-5-formyl-4-hydroxybenzamide], the IC50 was found to be 0.4 µM at human TLR2 [1], 0.1 µM at human TLR9 and 0.5 µM on human TLR2 [2].

The values are drawn from patent US11299487B2, “Compounds and compositions as modulators of TLR signaling” (Neuropore Therapies, Inc., priority 2019, dated 2022).
